Patent US10463772B2, “Prostaglandin and prostamide drug delivery systems and intraocular therapeutic uses thereof” (ALLERGAN, INC., priority 2008, dated 2019)

Legend:
[1] = Heat stability of latanoprost (biological activity); type: physicochemical; settings: on heating
[2] = cited from earlier work

Temperature above which latanoprost begins to lose biological activity [1]: about 56 °C
SMILES: CC(C)OC(=O)CCC/C=C\C[C@@H]1[C@@H](CC[C@@H](O)CCc2ccccc2)[C@H](O)C[C@@H]1O [latanoprost]
Solubility in acetone, ethanol, ethyl acetate, isopropanol, methanol and octanol [2]: freely soluble
Solubility in acetonitrile [2]: very soluble
Solubility in water [2]: practically insoluble
